Experimental data from patent US20090068146A1, “DIARYL UREAS AND COMBINATIONS” (priority 2005, published 2009).

Structure (SMILES) | melting point [°C]
CCNC(=O)c1cc(Oc2ccc(NC(=O)Nc3cc(C(F)(F)F)c(Cl)cc3OC)cc2)ccn1 [Entry 99, N-[4-chloro-2-methoxy-5-(trifluoromethyl)phenyl]({4-[2-(N-ethylcarbamoyl)(4-pyridyloxy)]phenyl}amino)carboxamide] | 180 to 181
CNC(=O)c1cc(Oc2ccc(NC(=O)Nc3cc(C(F)(F)F)c(Cl)cc3OC)c(Cl)c2)ccn1 [Entry 96, N-[4-chloro-2-methoxy-5-(trifluoromethyl)phenyl]({2-chloro-4-[2-(N-methylcarbamoyl)(4-pyridyloxy)]phenyl}amino)carboxamide] | 244 to 245
CNC(=O)c1cc(Oc2ccc(NC(=O)Nc3ccc(Cl)c(C(F)(F)F)c3)c(Cl)c2)ccn1 [Entry 49, {4-[3-chloro-4-({[4-chloro-3-(trifluoromethyl)phenyl]amino}carbonylamino)phenoxy](2-pyridyl)}-N-methylcarboxamide] | 147 to 151
CCNC(=O)c1cc(Oc2ccc(NC(=O)Nc3ccc(Br)c(C(F)(F)F)c3)cc2)ccn1 [Entry 88, N-[4-bromo-3-(trifluoromethyl)phenyl]({4-[2-(N-ethylcarbamoyl)(4-pyridyloxy)]phenyl}amino)carboxamide] | 183 to 184
CCNC(=O)c1cc(Oc2ccc(NC(=O)Nc3ccc(Cl)c(C(F)(F)F)c3)cc2)ccn1 [Entry 51, N-[4-chloro-3-(trifluoromethyl)phenyl]({4-[2-(N-ethylcarbamoyl)(4-pyridyloxy)]phenyl}amino)carboxamide] | 187 to 189
COc1ccc(C(F)(F)F)cc1NC(=O)Nc1ccc(Oc2ccnc(C(N)=O)c2)cc1 [Entry 14, 4-[4-({N-[2-methoxy-5-(trifluoromethyl)phenyl]carbamoyl}amino)phenoxy]pyridine-2-carboxamide] | 114 to 117
CNC(=O)c1cc(Oc2ccc(NC(=O)Nc3cc(C(F)(F)F)ccc3OC)c(Cl)c2)ccn1 [Entry 17, ({2-chloro-4-[2-(N-methylcarbamoyl)(4-pyridyloxy)]phenyl}amino)-N-[2-methoxy-5-(trifluoromethyl)phenyl]carboxamide] | 187 to 188
CNC(=O)c1cc(Oc2ccc(NC(=O)Nc3cc(C(F)(F)F)ccc3OC)cc2Cl)ccn1 [Entry 20, ({3-chloro-4-[2-(N-methylcarbamoyl)(4-pyridyloxy)]phenyl}amino)-N-[2-methoxy-5-(trifluoromethyl)phenyl]carboxamide] | 214 to 216
CNC(=O)c1cc(Oc2ccc(NC(=O)Nc3cc(C(F)(F)F)c(Cl)cc3OC)cc2)ccn1 [Entry 95, N-[4-chloro-2-methoxy-5-(trifluoromethyl)phenyl]({4-[2-(N-methylcarbamoyl)(4-pyridyloxy)]phenyl}amino)carboxamide] | 140 to 144
CNC(=O)c1cc(Oc2ccc(NC(=O)Nc3cc(C(F)(F)F)c(Cl)cc3OC)cc2Cl)ccn1 [Entry 97, N-[4-chloro-2-methoxy-5-(trifluoromethyl)phenyl]({3-chloro-4-[2-(N-methylcarbamoyl)(4-pyridyloxy)]phenyl}amino)carboxamide] | 220 to 221
CCNC(=O)c1cc(Oc2ccc(NC(=O)Nc3cc(C(F)(F)F)ccc3OC)cc2)ccn1 [Entry 19, ({4-[2-(N-ethylcarbamoyl)(4-pyridyloxy)]phenyl}amino)-N-[2-methoxy-5-(trifluoromethyl)phenyl]carboxamide] | 194 to 196
CNC(=O)c1cc(Oc2ccc(NC(=O)Nc3cc(C(F)(F)F)ccc3OC)c(C)c2)ccn1 [Entry 16, {4-[4-({N-[2-methoxy-5-(trifluoromethyl)phenyl]carbamoyl}amino)-3-methylphenoxy](2-pyridyl)}-N-methylcarboxamide] | 210 to 213
CNC(=O)c1cc(Oc2ccc(NC(=O)Nc3ccc(Br)c(C(F)(F)F)c3)cc2Cl)ccn1 [Entry 87, {4-[4-({[4-bromo-3-(trifluoromethyl)phenyl]amino}carbonylamino)-2-chlorophenoxy](2-pyridyl)}-N-methylcarboxamide] | 217 to 219
CNC(=O)c1cc(Sc2ccc(NC(=O)Nc3cc(C(F)(F)F)ccc3OC)cc2)ccn1 [Entry 27, N-[2-methoxy-5-(trifluoromethyl)phenyl]({4-[2-(N-methylcarbamoyl)(4-pyridylthio)]phenyl}amino)carboxamide] | 218 to 219
